IC50 data for 19 molecules are collected here from US9321756B2, “Azole compounds as PIM inhibitors” (priority 2011, dated 2016).

Experiment [1] concerns Pim-1 stably transfected U2OS human osteogenic sarcoma line. In words: Pim cell assay U2OS (phospho-BAD normalized against total BAD), Pim-1 transfected. Format: cell-based. The settings on record: Homo sapiens. The protocol: (§1) The cell lines used in the assay were generated by the stable transfection of either Pim-1 or Pim-2 into the U2OS human osteogenic sarcoma line. The assay for determination of the Pim activity in the engineered U2OS cell lines measures levels of phospho-BAD normalized against total BAD protein levels. It was conducted as follows:
(§2) The adherent cells were dissociated from the flasks using non-enzymatic cell dissociation solution (Sigma #C5914). […] The cells were then incubated overnight at 37° C., 5% CO2.
(§3) In addition to the 10-point dosing curve of the test compound, DMSO alone was run as the high control.
(§4) This dilution in DMSO was then diluted again into cell growth medium. Aliquots (12 μL) of the compound diluted in growth medium were then transferred to the appropriate wells of the 96-well plates containing cells to a final DMSO concentration of 0.3%. The cell plates were then incubated with compound for 29 min at 37° C., 5% CO2.
(§5) The cell plates containing lysis buffer were then immediately stored at −70° C.
(§6) These prepared lysates were then assayed for phospho and total BAD according to the manufacturer's protocols (Meso Scale Diagnostics, Cat#K15103C-3 & #K15103D-3). The plates were read on the MSD Sector Imager 6000, and results were calculated according to the assay protocols ((% Phosphoprotein=((2×Phospho signal)/(Phospho signal+Total signal))×100)).

Experiment [2] deals with full length recombinant Pim-3 (Homo sapiens (Human), UniProt Q86V86). The experiment can be described thus: Pim enzyme assay (HTRF, phosphorylation of biotinylated-BAD (S112) peptide), Pim-3. Format: biochemical. The settings on record: read-out: Pim3 IC50. The essentials:
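Full-length recombinant Pim-3 phosphorylated biotinylated BAD (S112) peptide in 60 mM Hepes pH 7.0, 0.05% BSA, 2 mM DTT for 1 h 30 min at 22 °C. After EDTA stop, HTRF was read with Eu anti-phospho-BAD and streptavidin-APC. IC50 came from 4-parameter logistic fit of percent-of-control values.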
Background: In TR-FRET formats the signal depends on donor and acceptor labels being close together.

Experiment [3] deals with full length recombinant Pim-1 (Homo sapiens (Human), UniProt P11309). The experiment can be described thus: Pim enzyme assay (HTRF, phosphorylation of biotinylated-BAD (S112) peptide), Pim-1. Format: biochemical. The settings on record: Pim-1 enzyme assay; read-out: Pim_1_IC50.
Experiment [4] concerns Pim-2 stably transfected U2OS human osteogenic sarcoma line. In words: Pim cell assay U2OS (phospho-BAD normalized against total BAD), Pim-2 transfected. Format: cell-based. The settings on record: Homo sapiens; U2OS cells, Pim-2 transfected; read-out: U2OS Pim2_Cell_IC50. The protocol: as §1, §2, §3, §4, §5, §6
For experiment [5], the target named is full length recombinant Pim-2 (Homo sapiens (Human), UniProt Q9P1W9). In words: Pim enzyme assay (HTRF, phosphorylation of biotinylated-BAD (S112) peptide), Pim-2. Format: biochemical. The settings on record: read-out: Pim2_IC50.
Setting [6] is: U2OS, read-out: U2OS Pim1_Cell_IC50, U2OS cells, Pim-1 transfected.
[7] abbreviates: U2OS, read-out: U2OS Pim1_Cell_IC50.

Read-outs that look alike come from different tables or passages of the source.

Chain of full length recombinant Pim-2 (Q9P1W9 whole entry): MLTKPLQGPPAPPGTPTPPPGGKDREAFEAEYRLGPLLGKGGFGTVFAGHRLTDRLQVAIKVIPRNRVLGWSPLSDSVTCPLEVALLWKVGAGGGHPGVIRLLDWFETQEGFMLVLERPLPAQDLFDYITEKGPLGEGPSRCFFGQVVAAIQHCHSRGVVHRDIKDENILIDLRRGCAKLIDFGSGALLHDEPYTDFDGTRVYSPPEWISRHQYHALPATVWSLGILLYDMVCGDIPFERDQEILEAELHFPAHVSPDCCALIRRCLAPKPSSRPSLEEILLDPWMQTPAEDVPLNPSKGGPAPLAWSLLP
Chain of full length recombinant Pim-1 (P11309 whole entry): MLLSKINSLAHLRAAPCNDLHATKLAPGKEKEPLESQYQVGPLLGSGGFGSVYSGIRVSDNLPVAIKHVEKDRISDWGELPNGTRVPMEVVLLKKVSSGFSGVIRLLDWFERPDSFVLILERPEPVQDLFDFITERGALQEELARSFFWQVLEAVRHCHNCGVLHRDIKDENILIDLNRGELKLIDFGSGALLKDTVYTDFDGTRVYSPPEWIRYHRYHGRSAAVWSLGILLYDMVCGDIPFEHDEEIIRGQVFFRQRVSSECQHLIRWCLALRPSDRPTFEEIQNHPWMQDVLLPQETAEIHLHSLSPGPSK

As to `Nc1nnc(-c2ccc3[nH]cc(-c4cccc(OC5CCCC5)n4)c3c2)s1` [Example 163, 5-(3-(6-(cyclopentyloxy)-2-pyridinyl)-1H-indol-5-yl)-1,3,4-thiadiazol-2-amine], the IC50 is 479 nM in experiment [1] (U2OS cells, Pim-1 transfected, read-out: U2OS Pim1_Cell_IC50); 4.58 nM in experiment [2] (Pim-3 enzyme assay); 14.7 nM in experiment [3]; 6900 nM in experiment [4].
Take `CC(C)Oc1cccc(-c2c[nH]c3ccc(-c4nnc(NC5CCCNC5)s4)cc23)n1` (stereo not drawn) [Example 32, 5-(3-(6-Isopropoxypyridin-2-yl)-1H-indol-5-yl)-N-(piperidin-3-yl)-1,3,4-thiadiazol-2-amine 2,2,2-trifluoroacetate]: the IC50 in experiment [1] (setting [6]) was 573 nM; in experiment [2], 3.46 nM; in experiment [4] it was 6850 nM.
As to `Nc1nnc(-c2ccc3[nH]cc(-c4cccc(N5CCOCC5)n4)c3c2)s1` [Example 24, 5-(3-(6-morpholinopyridin-2-yl)-1H-indol-5-yl)-1,3,4-thiadiazol-2-amine], the IC50 amounted to 232 nM in experiment [1] (setting [6]), 58.7 nM in experiment [5] (Pim-2 enzyme assay), 5.59 nM in experiment [2] (Pim-3 enzyme assay) and 7570 nM in experiment [4].
On to `Nc1nnc(-c2ccc3[nH]cc(-c4cncc(N5CCC(F)(F)CC5)n4)c3c2)o1` [Example 2, 5-(3-(6-(4,4-difluoropiperidin-1-yl)pyrazin-2-yl)-1H-indol-5-yl)-1,3,4-oxadiazol-2-amine], for which the IC50 was determined as 29.4 nM in experiment [1] (setting [6]), 1.08 nM in experiment [2] (Pim-3 enzyme assay), 1.94 nM in experiment [3] and 419 nM in experiment [4].
The like results for `CNc1nnc(-c2ccc3[nH]cc(-c4csc(-n5cnc(C)c5)n4)c3c2)s1` [Example 233, N-methyl-5-(3-(2-(4-methyl-1H-imidazol-1-yl)-1,3-thiazol-4-yl)-1H-indol-5-yl)-1,3,4-thiadiazol-2-amine] were, in that order, 1400 nM, 28 nM, 100 nM and greater than 31600 nM.
As for `c1cc(C2CC2)nc(-c2c[nH]c3ccc(-c4nnc(NC5COC5)o4)cc23)n1` [Example 256, 5-(3-(4-cyclopropyl-2-pyrimidinyl)-1H-indol-5-yl)-N-3-oxetanyl-1,3,4-oxadiazol-2-amine], the IC50 in experiment [1] (setting [6]) came out at 68.1 nM; in experiment [2] (Pim-3 enzyme assay), 1.21 nM; in experiment [3], 7.69 nM; in experiment [4], 734 nM.
The like results for `Nc1nnc(-c2ccc3[nH]cc(-c4nccc(-c5ccccc5F)n4)c3c2)o1` [Example 123, 5-(3-(4-(2-fluorophenyl)-2-pyrimidinyl)-1H-indol-5-yl)-1,3,4-oxadiazol-2-amine] were, in that order, 147 nM, 4.97 nM, 10.6 nM and 1350 nM.
Consider `CC(C)Nc1nnc(-c2ccc3[nH]cc(-c4nccc(C(F)(F)F)n4)c3c2)o1` [Example 258, N-(1-methylethyl)-5-(3-(4-(trifluoromethyl)-2-pyrimidinyl)-1H-indol-5-yl)-1,3,4-oxadiazol-2-amine], for which the IC50 in experiment [1] (setting [7]) came out at 229 nM; in experiment [5] (Pim-2 enzyme assay), 25.2 nM; in experiment [3] it was 13.7 nM; in experiment [4] it was 3720 nM.
On to `Nc1nnc(-c2ccc3[nH]cc(-c4cccc(OC5CCC5)n4)c3c2)s1` [Example 161, 5-(3-(6-(cyclobutyloxy)-2-pyridinyl)-1H-indol-5-yl)-1,3,4-thiadiazol-2-amine], for which the IC50 in experiment [1] (setting [6]) turned out to be 205 nM; in experiment [2] (Pim-3 enzyme assay), 2.98 nM; in experiment [3] it was 10.9 nM; in experiment [4], 3480 nM.
For `Oc1nnc(-c2ccc3[nH]cc(-c4cccc(N5CCOCC5)n4)c3c2)s1` [Example 29, 5-(3-(6-morpholinopyridin-2-yl)-1H-indol-5-yl)-1,3,4-thiadiazol-2-ol] the same measures were 6860 nM, 28.9 nM, 121 nM and greater than 31600 nM.
Consider `Nc1nnc(-c2ccc3[nH]cc(-c4cccc(N5CCCCC5)n4)c3c2)s1` [Example 172, 5-(3-(6-(1-piperidinyl)-2-pyridinyl)-1H-indol-5-yl)-1,3,4-thiadiazol-2-amine], for which the IC50 in experiment [1] (setting [7]) is 414 nM; in experiment [5] (Pim-2 enzyme assay), 68.8 nM; in experiment [3], 40.5 nM; in experiment [4], greater than 31600 nM.
For `c1cc2[nH]cc(-c3cncc(C4CC4)n3)c2cc1-c1nnc(NC2COC2)o1` [Example 251, 5-(3-(6-cyclopropyl-2-pyrazinyl)-1H-indol-5-yl)-N-3-oxetanyl-1,3,4-oxadiazol-2-amine] the same measures were 107 nM, 5.84 nM, 3.2 nM and 2010 nM.
With `Nc1nnc(-c2ccc3[nH]cc(-c4cncc(NC5CCCCC5)n4)c3c2)s1` [Example 208, 6-(5-(5-amino-1,3,4-thiadiazol-2-yl)-1H-indol-3-yl)-N-cyclohexyl-2-pyrazinamine], the IC50 was determined as 56.3 nM in experiment [1] (setting [6]), 18.1 nM in experiment [5] (Pim-2 enzyme assay), 3.15 nM in experiment [3] and 2600 nM in experiment [4].
For the molecule `CC(C)Oc1cccc(-c2c[nH]c3ccc(-c4nnc(N[C@@H]5CCCNC5)s4)cc23)n1` [Example 35, (R)-5-(3-(6-Isopropoxypyridin-2-yl)-1H-indol-5-yl)-N-(piperidin-3-yl)-1,3,4-thiadiazol-2-amine 2,2,2-trifluoroacetate], the IC50 in experiment [1] (setting [6]) came to 1150 nM; in experiment [2], 1.84 nM; in experiment [3], 9.23 nM; in experiment [4], 10900 nM.
On to `Nc1nnc(-c2ccc3[nH]cc(-c4nccc(OCC(F)(F)F)n4)c3c2)o1` [Example 110, 5-(3-(4-(2,2,2-trifluoroethoxy)-2-pyrimidinyl)-1H-indol-5-yl)-1,3,4-oxadiazol-2-amine], for which the IC50 in experiment [1] (setting [7]) was found to be 219 nM; in experiment [5] (Pim-2 enzyme assay), 2.38 nM; in experiment [3], 4.68 nM; in experiment [4], 1630 nM.
Turning to `CNc1nnc(-c2ccc3[nH]cc(-c4cccc(OC(C)C)n4)c3c2)o1` [Example 41, 5-(3-(6-isopropoxypyridin-2-yl)-1H-indol-5-yl)-N-methyl-1,3,4-oxadiazol-2-amine], the IC50 in experiment [1] (setting [6]) was found to be 124 nM; in experiment [5] it was 19.6 nM; in experiment [3], 6.48 nM; in experiment [4], 1320 nM.
With `CN1CCCC(Oc2ccnc(-c3c[nH]c4ccc(-c5nnc(N)o5)cc34)n2)C1` (stereo not drawn) [Example 112, 5-(3-(4-((1-methyl-3-piperidinyl)oxy)-2-pyrimidinyl)-1H-indol-5-yl)-1,3,4-oxadiazol-2-amine], the IC50 in experiment [1] (setting [7]) amounted to 180 nM; in experiment [5] (Pim-2 enzyme assay), 2.85 nM; in experiment [3], 5.79 nM; in experiment [4], 1160 nM.
For `CC[C@@H]1COCCN1c1nnc(-c2ccc3[nH]cc(-c4cncc(C5CC5)n4)c3c2)o1` (stereo in doubt) [Example 252, 3-(6-cyclopropyl-2-pyrazinyl)-5-(5-(3-ethyl-4-morpholinyl)-1,3,4-oxadiazol-2-yl)-1H-indole] the same measures were 310 nM, 29.8 nM, 9.66 nM and greater than 31600 nM.
For `FC(F)(F)CNc1nnc(-c2ccc3[nH]cc(-c4nccc(C5CC5)n4)c3c2)o1` [Example 53, 5-(3-(4-cyclopropylpyrimidin-2-yl)-1H-indol-5-yl)-N-(2,2,2-trifluoroethyl)-1,3,4-oxadiazol-2-amine] the same measures were 34.5 nM, 0.638 nM, 0.407 nM and 475 nM.
